Results: PMC9495681, “Examining Topoisomers of a Snake-Venom-Derived Peptide for Improved Antimicrobial and Antitumoral Properties” (Biomedicines, 2022)
≈ marks a conversion by molar mass, not a printed value. Square brackets hold non-standard residues; d marks the D form. Peptide text beside a SMILES is read from it.

Experiments:
[1] = system: A. baumannii (ATCC 15308); test: Minimal inhibitory concentration (MIC), broth microdilution; format: cell-based; settings: Mueller Hinton Broth, 5 × 10^5 CFU/mL, 0.04% BSA and 0.002% acetic acid, 20–22 h at 37 °C, duplicate
Description: (§1) Assays were performed on three Gram-negative bacteria: E. coli (BW25113, Coli Genetic Stock Center), A. baumannii (ATCC 15308, CECT, Valencia, Spain), and Pseudomonas sp. (ATCC15915, CECT). The minimal inhibitory concentration (MIC) of each peptide was determined as described by Wiegand et al.. Peptide stocks in water were added to polypropylene 96-well plates (Greiner, Frickenhausen, Germany) and serially diluted from 100 to 0.2 μM. Fresh bacteria were incubated at 37 °C in Mueller Hinton Broth (MHB, Condalab, Torrejón de Ardoz, Spain) up to exponential growth and diluted to a final inoculum of 5 × 10^5 CFU/mL. BSA and acetic acid at 0.04% (w/v) and 0.002% (v/v) final concentration, respectively, were added to avoid peptide self-aggregation. Plates were incubated for 20–22 h at 37 °C. Each peptide was tested in duplicate. MIC values were the lowest peptide concentration where bacterial growth was not detected.

E. coli (BW25113) = test: as above; format: cell-based; settings: Mueller Hinton Broth, 5 × 10^5 CFU/mL, 0.04% BSA and 0.002% acetic acid, 20–22 h at 37 °C, duplicate
Description: as §1

[2] = system: Pseudomonas sp. (ATCC15915); test: as above; format: cell-based; settings: Mueller Hinton Broth, 5 × 10^5 CFU/mL, 0.04% BSA and 0.002% acetic acid, 20–22 h at 37 °C, duplicate
Description: as §1

1BR3G human fibroblasts = test: Peptide cytotoxicity (Cell Titer Blue viability); format: cell-based; settings: 24 h treatment, medium with 2% FBS, Cell Titer Blue fluorescence, triplicate
Text: Human HeLa S3 (cervix epithelial carcinoma), leukemia Jurkat E6.1 (T-cell lineage), U937 (histiocytic lymphoma), THP-1 (acute monocytic leukemia), and 1BR3G human fibroblasts were obtained from the Cell Lines Repository of the Institut Municipal d’Investigació Medica (Barcelona, Spain). BxPC3 (pancreas adenocarcinoma), A549 (lung carcinoma), SH-Sy5Y (neuroblastoma), Panc1 (epithelioid carcinoma), 786-O (renal cell adenocarcinoma), and HT29 (colorectal adenocarcinoma) were obtained from the Integrative Biomedical Materials and Nanomedicine lab at UPF (Barcelona, Spain). HeLa S3, Jurkat E6.1, U937, THP-1, Panc1, and 786-O were cultured in Roswell Park Memorial Institute medium (RPMI) supplemented with 10% fetal bovine serum (FBS) and 1% penicillin/streptomycin solution and maintained at 37 °C in a humidified atmosphere with 5% of CO2. 1BR3G, BxPC3, A549, and HT29 were cultured in Dulbecco’s Modified Eagle’s Medium (DMEM) supplemented with 10% FBS and 1% penicillin/streptomycin solution and maintained at 37 °C in a humidified atmosphere with 5% of CO2. SH-Sy5Y was cultured in DMEM supplemented with 15% FBS and 1% penicillin/streptomycin and maintained at 37 °C in a humidified atmosphere with 5% of CO2. Cultures were maintained at 10^5–10^6 cell/mL densities. For 1BR3G human fibroblasts, BxPC3, A549, SH-Sy5Y, Panc1, 786-O, and HT29 were split every time they reached 80–90% of confluence after harvesting with PBS and trypsin.
About 60,000 cells were added to different microfuge tubes containing 2-fold serial dilution of the peptide, with a final concentration in the range between 0.1–100 μM in RPMI containing 2% of FBS. After 30 min incubation at 37 °C and 5% of CO2, […] of medium containing approximately 10,000 treated cells were transferred to a 96-well plate. Then, 15 μL of Cell Titer Blue dye (Promega, Madison, WI, USA) was added, and plates were reincubated for 24 h. Fluorescence was read at 4 and 24 h after dye addition in a Synergy HTX (BioTek, Winooski, VT, USA) reader, with λexc = 560 nm and λem = 620 nm. In the case of adherent cultures, 5000 cells/well were seeded in 96-well plates. After 24 h incubation at 37 °C and 5% of CO2, the medium was removed, and a new medium with 2% of FBS containing the various 2-fold dilution of the peptides was added. After a further 30 min, 15 μL of Cell Titer Blue dye was added to each well, and the measurement was done as above. Relative viability was calculated relative to a cell with only 2% FBS in the corresponding medium as a control (100% viability). All assays were conducted in triplicate.

Serum stability = format: in vitro ADME; settings: 0.5 mL each of human serum (Sigma-Aldrich) and peptide (1 mM in water), 37 °C with stirring, trichloroacetic acid treatment, HPLC / LC-MS; for remaining at 24 h, 0.5 mM: 24 h (1440 min), read-out: Peptide remaining in human serum after 24 h
Description: Briefly, 0.5 mL each of human serum (Sigma-Aldrich, St. Louis, MO, USA) and peptide (1 mM in water) were mixed and incubated for 24 h at 37 °C with stirring. Aliquots (0.1 mL) were taken at 0, 1, 5, 10, 30, 120, 360 and 1440 min and treated with 20 μL of trichloroacetic acid (15% (v/v) in water). The suspension was centrifuged for 30 min at 4 °C and 13,000 rpm, and the supernatant was analyzed by HPLC as described above.

Row | Structure (SMILES) | MIC A. baumannii [1] [µM] | MIC E. coli (E. coli (BW25113)) [µM] | MIC Pseudomonas sp. [2] [µM] | IC50 (cell viability) human fibroblast 1BR3G (1BR3G human fibroblasts) | remaining at 24 h, 0.5 mM (Serum stability) [%] | half-life at 0.5 mM (Serum stability; aliquots 0–1440 min, read-out: t1/2 in human serum) [h]
1 | CC[C@H](C)[C@H](NC(=O)CNC(=O)[C@@H](NC(=O)[C@@H](NC(=O)[C@@H](NC(=O)[C@@H]1CCCN1C(=O)[C@@H](N)Cc1ccccc1)[C@@H](C)CC)[C@@H](C)O)C(C)C)C(=O)N[C@H](C(=O)N[C@@H](CCSC)C(=O)N1CCC[C@H]1C(=O)N[C@@H](CCCCN)C(=O)N[C@@H](CCCCN)C(=O)N[C@@H](Cc1ccccc1)C(=O)N[C@H](C(=O)N[C@@H](CCCCN)C(=O)N[C@@H](CCCCN)C(=O)N[C@@H](CC(C)C)C(=O)N[C@@H](CCCNC(=N)N)C(=O)N[C@@H](CCCCN)C(=O)N[C@@H](CCCCN)C(N)=O)[C@@H](C)CC)C(C)C [Ctn[15-34] retro] (H-FPITVGIVMPKKFIKKLRKK-NH2) | 0.78 (≈ 1.85 µg/mL) | 0.16 (≈ 0.379 µg/mL) | <0.05 | ≈ 15.84 μM | – | –
2 | CC[C@H](C)[C@H](NC(=O)CNC(=O)[C@@H](NC(=O)[C@@H](NC(=O)[C@@H](NC(=O)[C@@H]1CCCN1C(=O)[C@@H](N)Cc1ccccc1)[C@@H](C)CC)[C@@H](C)O)C(C)C)C(=O)N[C@H](C(=O)N[C@@H](CCSC)C(=O)N1CCC[C@H]1C(=O)N[C@@H](CCCCN)C(=O)N[C@@H](CCCCN)C(=O)N[C@@H](Cc1ccccc1)C(=O)N[C@H](C(=O)N[C@@H](CCCCN)C(=O)N[C@@H](CCCCN)C(=O)N[C@@H](CC(C)C)C(=O)N[C@@H](CCCNC(=N)N)C(=O)N[C@@H](CCCCN)C(=O)N[C@@H](CCCCN)C(=O)N[C@H](C(=O)N[C@@H](CO)C(=O)N[C@@H](CCCCN)C(=O)N[C@@H](CCCCN)C(=O)N[C@H](C(=O)N[C@@H](CCCCN)C(=O)N[C@@H](CCCCN)C(=O)N[C@@H](Cc1ccccc1)C(=O)N[C@@H](Cc1ccccc1)C(=O)N[C@@H](CCCCN)C(=O)N[C@@H](CCCCN)C(=O)N[C@@H](Cc1ccccc1)C(=O)N[C@@H](CCCNC(=N)N)C(=O)N[C@@H](CCCCN)C(N)=O)C(C)C)C(C)C)[C@@H](C)CC)C(C)C [Ctn retro] (H-FPITVGIVMPKKFIKKLRKKVSKKVKKFFKKFRK-NH2) | 1.56 (≈ 6.48 µg/mL) | 0.78 (≈ 3.24 µg/mL) | 1.56 (≈ 6.48 µg/mL) | – | – | –
3 | CC[C@@H](C)[C@@H](NC(=O)[C@@H](CCCCN)NC(=O)[C@@H](CCCCN)NC(=O)[C@@H](CC(C)C)NC(=O)[C@@H](CCCNC(=N)N)NC(=O)[C@@H](CCCCN)NC(=O)[C@@H](CCCCN)NC(=O)[C@H](NC(=O)[C@@H](CO)NC(=O)[C@@H](CCCCN)NC(=O)[C@@H](CCCCN)NC(=O)[C@H](NC(=O)[C@@H](CCCCN)NC(=O)[C@@H](CCCCN)NC(=O)[C@@H](Cc1ccccc1)NC(=O)[C@@H](Cc1ccccc1)NC(=O)[C@@H](CCCCN)NC(=O)[C@@H](CCCCN)NC(=O)[C@@H](Cc1ccccc1)NC(=O)[C@@H](CCCNC(=N)N)NC(=O)[C@H](N)CCCCN)C(C)C)C(C)C)C(=O)N[C@H](Cc1ccccc1)C(=O)N[C@H](CCCCN)C(=O)N[C@H](CCCCN)C(=O)N1CCC[C@@H]1C(=O)N[C@H](CCSC)C(=O)N[C@@H](C(=O)N[C@@H](C(=O)NCC(=O)N[C@@H](C(=O)N[C@@H](C(=O)N[C@@H](C(=O)N1CCC[C@@H]1C(=O)N[C@H](Cc1ccccc1)C(N)=O)[C@H](C)CC)[C@H](C)O)C(C)C)[C@H](C)CC)C(C)C [Ctn enantio] (H-[dK][dR][dF][dK][dK][dF][dF][dK][dK][dV][dK][dK][dS][dV][dK][dK][dR][dL][dK][dK][dI][dF][dK][dK][dP][dM][dV][dI]G[dV][dT][dI][dP][dF]-NH2) | 1.56 (≈ 6.48 µg/mL) | 0.39 (≈ 1.62 µg/mL) | 0.39 (≈ 1.62 µg/mL) | 2.7 µM | 30 | –
4 | CC[C@@H](C)[C@@H](NC(=O)[C@@H](CCCCN)NC(=O)[C@@H](CCCCN)NC(=O)[C@@H](CC(C)C)NC(=O)[C@@H](CCCNC(=N)N)NC(=O)[C@@H](CCCCN)NC(=O)[C@H](N)CCCCN)C(=O)N[C@H](Cc1ccccc1)C(=O)N[C@H](CCCCN)C(=O)N[C@H](CCCCN)C(=O)N1CCC[C@@H]1C(=O)N[C@H](CCSC)C(=O)N[C@@H](C(=O)N[C@@H](C(=O)NCC(=O)N[C@@H](C(=O)N[C@@H](C(=O)N[C@@H](C(=O)N1CCC[C@@H]1C(=O)N[C@H](Cc1ccccc1)C(N)=O)[C@H](C)CC)[C@H](C)O)C(C)C)[C@H](C)CC)C(C)C [Ctn[15-34] enantio] (H-[dK][dK][dR][dL][dK][dK][dI][dF][dK][dK][dP][dM][dV][dI]G[dV][dT][dI][dP][dF]-NH2) | 0.39 (≈ 0.925 µg/mL) | 0.16 (≈ 0.379 µg/mL) | 0.1 (≈ 0.237 µg/mL) | – | – | –
5 | CC[C@@H](C)[C@@H](NC(=O)CNC(=O)[C@H](NC(=O)[C@H](NC(=O)[C@H](NC(=O)[C@H]1CCCN1C(=O)[C@H](N)Cc1ccccc1)[C@H](C)CC)[C@H](C)O)C(C)C)C(=O)N[C@@H](C(=O)N[C@H](CCSC)C(=O)N1CCC[C@@H]1C(=O)N[C@H](CCCCN)C(=O)N[C@H](CCCCN)C(=O)N[C@H](Cc1ccccc1)C(=O)N[C@@H](C(=O)N[C@H](CCCCN)C(=O)N[C@H](CCCCN)C(=O)N[C@H](CC(C)C)C(=O)N[C@H](CCCNC(=N)N)C(=O)N[C@H](CCCCN)C(=O)N[C@H](CCCCN)C(=O)N[C@@H](C(=O)N[C@H](CO)C(=O)N[C@H](CCCCN)C(=O)N[C@H](CCCCN)C(=O)N[C@@H](C(=O)N[C@H](CCCCN)C(=O)N[C@H](CCCCN)C(=O)N[C@H](Cc1ccccc1)C(=O)N[C@H](Cc1ccccc1)C(=O)N[C@H](CCCCN)C(=O)N[C@H](CCCCN)C(=O)N[C@H](Cc1ccccc1)C(=O)N[C@H](CCCNC(=N)N)C(=O)N[C@H](CCCCN)C(N)=O)C(C)C)C(C)C)[C@H](C)CC)C(C)C [Ctn retroenantio] (H-[dF][dP][dI][dT][dV]G[dI][dV][dM][dP][dK][dK][dF][dI][dK][dK][dL][dR][dK][dK][dV][dS][dK][dK][dV][dK][dK][dF][dF][dK][dK][dF][dR][dK]-NH2) | 1.56 (≈ 6.48 µg/mL) | 0.78 (≈ 3.24 µg/mL) | 0.78 (≈ 3.24 µg/mL) | 4.3 µM | 40 | –
6 | CC[C@@H](C)[C@@H](NC(=O)CNC(=O)[C@H](NC(=O)[C@H](NC(=O)[C@H](NC(=O)[C@H]1CCCN1C(=O)[C@H](N)Cc1ccccc1)[C@H](C)CC)[C@H](C)O)C(C)C)C(=O)N[C@@H](C(=O)N[C@H](CCSC)C(=O)N1CCC[C@@H]1C(=O)N[C@H](CCCCN)C(=O)N[C@H](CCCCN)C(=O)N[C@H](Cc1ccccc1)C(=O)N[C@@H](C(=O)N[C@H](CCCCN)C(=O)N[C@H](CCCCN)C(=O)N[C@H](CC(C)C)C(=O)N[C@H](CCCNC(=N)N)C(=O)N[C@H](CCCCN)C(=O)N[C@H](CCCCN)C(N)=O)[C@H](C)CC)C(C)C [Ctn[15-34] retroenantio] (H-[dF][dP][dI][dT][dV]G[dI][dV][dM][dP][dK][dK][dF][dI][dK][dK][dL][dR][dK][dK]-NH2) | 0.39 (≈ 0.925 µg/mL) | 0.16 (≈ 0.379 µg/mL) | 0.1 (≈ 0.237 µg/mL) | – | – | 15.3
